In ChEMBL document CHEMBL2069169, “Novel triazines as potent and selective phosphodiesterase 10A inhibitors” (Bioorg Med Chem Lett, 2012):
Active and inactive are the calls of the source. The rule behind the calls is not given here.

Assays:
[1] = Elimination half life in rat at 2 mg/kg, iv and 10 mg/kg, po; type: ADME, organism-based; conditions: in vivo, read-out: beta t1/2 (converted)
[2] = molecular target: cGMP-specific 3',5'-cyclic phosphodiesterase (Canis lupus familiaris, UniProt O77746); assay: Inhibition of PDE5; set-up: species or system Homo sapiens
[3] = molecular target: Phosphodiesterase 6; assay: Inhibition of PDE6; type: protein assay, Homo sapiens
[4] = Oral bioavailability in rat at 10 mg/kg; type: ADME, organism-based; conditions: in vivo
[5] = Volume of distribution at steady state in rat at 2 mg/kg, iv and 10 mg/kg, po; type: ADME, organism-based; conditions: in vivo, read-out: Vdss
[6] = system: Rattus norvegicus; assay: Antipsychotic activity in po dosed rat assessed as reduction of MK801-induced stereotyped sniffing; type: functional; set-up: Activity: scale not given: the % may be the effect or the level left
[7] = system: Rattus norvegicus; assay: Antipsychotic activity in po dosed rat assessed as reduction of MK801-induced hyperactivity; type: functional; set-up: Activity: scale not given: the % may be the effect or the level left
[8] = molecular target: Phosphodiesterase 4 (Homo sapiens, UniProt P27815+Q08499+Q07343+Q08493); assay: Inhibition of PDE4; type: protein assay
[9] = system: Rattus norvegicus; assay: Antipsychotic activity in po dosed Sprague-Dawley rat assessed as reduction of conditioned avoidance response; type: functional
[10] = AUC in rat plasma at 2 mg/kg, iv and 10 mg/kg, po; type: ADME, organism-based
[11] = molecular target: Phosphodiesterase 3 (Homo sapiens, UniProt Q14432+Q13370); assay: Inhibition of PDE3; type: protein assay
[12] = Clearance in rat at 2 mg/kg, iv and 10 mg/kg, po; type: ADME, organism-based; conditions: in vivo
[13] = AUC in rat brain at 2 mg/kg, iv and 10 mg/kg, po; type: ADME, organism-based
[14] = system: Rattus norvegicus; assay: Antipsychotic activity in Sprague-Dawley rat assessed as reduction of conditioned avoidance response at 0.17 mg/kg, po; type: functional, organism-based; set-up: dose 0.17 mg/kg
[15] = Rattus norvegicus, po, read-out: MED

SMILES: COc1cc(C(F)(F)F)cc2c1nnc1c(C)nc(-c3ccncc3C)n12
- half-life [1]: 4.5 h
- IC50 [2]: 2290 nM
- IC50 [3]: 1790 nM
- bioavailability [4]: 53%
- Vd [5]: 1.3 L/kg
- Activity [6]: 18.4%
- minimal effective dose [6, 15]: 0.1 mg/kg
- Activity [7]: 40.5%
- minimal effective dose [7, 15]: 0.1 mg/kg
- IC50 [8]: > 10000 nM
- ID30 [9]: 0.123 mg/kg
- ED50 ([9]; Rattus norvegicus, Sprague-Dawley, po, read-out: ID50 (the source's name)): 0.204 mg/kg
- AUC [10]: 1600 ng·h/mL
- IC50 [11]: > 10000 nM
- clearance [12]: 5 mL/min/kg
- AUC [13]: 622 ng·h/mL
- Activity [14]: Active
